Reference: ChEMBL document CHEMBL1148733, “Novel N7- and N1-substituted cGMP derivatives are potent activators of cyclic nucleotide-gated channels” (J Med Chem, 2007)

What was measured:
Oocyte = assay: Activation of retinal rod […] CNG A1B1 channel expressed in Xenopus oocytes assessed as effect on half maximal current; assay type: cell-based; conditions: Homo sapiens
HEK293 = conditions: Homo sapiens
Description: Activation of olfactory CNG A2A41b channel expressed in HEK293 cells assessed as effect on half maximal current

Row | SMILES | K1/2 (Oocyte) [µM] | K1/2 (HEK293) [µM]
1 | Nc1nc2c(ncn2[C@@H]2O[C@@H]3COP(=O)(O)O[C@H]3[C@H]2O)c(=O)[nH]1 | 41 | 1.1
2 | Nc1nc2c([nH]c(=S)n2[C@@H]2O[C@@H]3COP(=O)(O)O[C@H]3[C@H]2O)c(=O)[nH]1 | 14 | 0.18
3 | CCCC(=O)O[C@@H]1[C@@H]2OP(=O)(O)OC[C@H]2O[C@H]1n1cnc2c(=O)[nH]c(N)nc21 | – | 88
4 | Nc1nc2c(nc(Sc3ccc(Cl)cc3)n2[C@@H]2O[C@@H]3COP(=O)(O)O[C@H]3[C@H]2O)c(=O)n1CCS(=O)(=O)c1ccccc1 | 12 | 0.38
5 | CO[C@@H]1[C@@H]2OP(=O)(O)OC[C@H]2O[C@H]1n1cnc2c(=O)[nH]c(N)nc21 | – | 35
6 | CCCC(=O)Nc1nc2c(ncn2[C@@H]2O[C@@H]3COP(=O)(O)O[C@H]3[C@H]2O)c(=O)[nH]1 | – | 22
7 | Nc1nc2c(nc(Sc3ccc(Cl)cc3)n2[C@@H]2O[C@@H]3COP(=O)(O)O[C@H]3[C@H]2O)c(=O)[nH]1 | 1 | 0.073
8 | CS(=O)(=O)CCSc1nc2c(=O)[nH]c(N)nc2n1[C@@H]1O[C@@H]2COP(=O)(O)O[C@H]2[C@H]1O | – | 0.37
9 | CS(=O)(=O)CCn1c(=S)n([C@@H]2O[C@@H]3COP(=O)(O)O[C@H]3[C@H]2O)c2nc(N)[nH]c(=O)c21 | – | 0.11
10 | Nc1nc2c(c(=O)[nH]1)[n+]1c(n2[C@@H]2O[C@@H]3COP(=O)(O)O[C@H]3[C@H]2O)SCCC1 | – | 10
11 | Nc1ncnc2c1nc(Sc1ccc(Cl)cc1)n2[C@@H]1O[C@@H]2COP(=O)(O)O[C@H]2[C@H]1O | – | 0.55
12 | Nc1nc2c(c(=O)[nH]1)n(CCS(=O)(=O)c1ccccc1)c(=S)n2[C@@H]1O[C@@H]2COP(=O)(O)O[C@H]2[C@H]1O | 4.1 | 0.082
13 | CO[C@@H]1[C@@H]2OP(=O)(O)OC[C@H]2O[C@H]1n1c(Sc2ccc(Cl)cc2)nc2c(N)ncnc21 | – | 22
14 | CO[C@@H]1[C@@H]2OP(=O)(O)OC[C@H]2O[C@H]1n1cnc2c(=O)n(C)c(N)nc21 | – | 290
15 | Nc1nc2c(nc(SCCS(=O)(=O)c3ccccc3)n2[C@@H]2O[C@@H]3COP(=O)(O)O[C@H]3[C@H]2O)c(=O)[nH]1 | – | 0.21
